Several values for one entry are separate records, joined by “and”; a condition that tells them apart may be missing. Equal entries are not always repeated. Entries after “also recorded” stand apart in the source; their conditions may differ.
Assays:
B16 Melanocarcinoma = assay: Experiment 17: B16 i.p., saline with Tween-80, female; type: in vivo, Mouse B6C3F1
Description: Tumor: B16 Melanocarcinoma
(§1) Inoculum Site: Intraperitoneal
Tissue: Homogenate (or brei), tumor
(§2) Vehicle: Saline with Tween-80
(§3) Treatment schedule (relative to tumor inoculation day): daily on days 1-9
(§4) Day of evaluation (relative to tumor inoculation day): 60
(§5) Parameter: Median survival time (MST) in days
(§6) NCI minimal activity criteria: Percent T/C≥125
(§7) Percent T/C: Ratio of test (T) evaluation to control (C) evaluation expressed as a percentage

[1] = Five daily dose (X5) mouse range-finding and lethality study; type: in vivo, CD2 F1 mice; settings: mouse, in vivo, iv
Method: (§8) A preclinical toxicology study of benzisoquinolinedione (NSC-308847) was done at Springborn Institute for Bioresearch, Inc. using CD2 F1 mice, Fischer 344 rats and beagle dogs. Animals were injected intravenously on a single dose (X1) or five daily dose (X5) regimen. Bulk drug was titrated with 0.5N HCl to form a salt solution of benzisoquinolinedione at a pH of 5.0-6.5. Sterile 0.9% saline was used for diluting the dosing solutions and was used for the vehicle control animals.
(§9) The deaths generally were preceded by rough hair coat, decreased activity, hunched posture and dehydration. […] Males and females were similarily affected on both schedules.
(§10) Defined Doses for the Five Daily Dose Mouse Lethality

CD2 F1 mice = assay: as above; type: in vivo
Method: as §8, §9, §10

L-1210 Lymphoid leukemia [2] = assay: Experiment 9: L-1210 i.p., 10^5 cells, saline with Tween-80, male; type: in vivo, CD2F1 (CDF)
Description: (§11) Tumor: L-1210 Lymphoid leukemia
as §1, §2, §3
(§12) Day of evaluation (relative to tumor inoculation day): 30
(§13) Parameter: Mean survival time (MST) in days
as §6, §7

L-1210 Lymphoid leukemia [3] = assay: Experiment 3: L-1210 i.p., 10^5 cells, saline with Tween-80, male; type: in vivo, Mouse CD2 F1 (CDF1)
Description: (§14) Host: Mouse CD2 F1 (CDF1)
as §11
Inoculum Site: intraperitoneal
as §2
Treatment schedule (relative to tumor inoculation day) daily on days 1-9
as §12
Parameter: Mean survival time (MST) in days.
as §6, §7

M5076 ovarian carcinoma [4] = assay: Experiment 21: M5076 i.p., 10^6 cells, acid diluted with saline, female; type: in vivo, Mouse
Description: Tumor: M5076 ovarian carcinoma
as §1
(§15) Vehicle: Acid diluted with saline
Treatment schedule (relative to tumor inoculation day): every 4 days for 4 times
as §4, §13
NCI minimal activity criteria: Percent T/C≥125.
Percent T/C: Ratio of test (T) evaluation to control (C) evaluation expressed as a percentage.

[5] = tested on: P388 Lymphocytic leukemia; assay: NCI screen, P388 Lymphocytic leukemia, intraperitoneal (summary); type: in vivo, Mouse; settings: for maximum increased life span: days 2-9 as printed; for Antitumor activity in words: P388
Description: (§16) The activity of the compound has been evaluated by experiments carried out under the auspices of the Division of Cancer Treatment, National Cancer Institute, employing techniques considered to be reliable indicators of chemotherapeutic utility in the treatment of forms of cancer in human patients. The details of the methodology employed in the reported experiments may be determined with reference to established NCI screening methods.
In the experiments conducted by the NCI, evaluation of activity is made on the basis of appropriate parameters, such as median survival time (MST) or change in average tumor diameter (CATD)in ocular micrometer units (OMU).
The compound was found initially to be active in the P388 leukemia pre-screen, with T/C values (ratio of Test (T) evaluation to control (C) evaluation expressed as a percentage) of 177 and 176. Both values exceed the minimum T/C values for interest by the Decision Network Committe.

L-1210 Lymphoid leukemia [6] = assay: Experiment 2: L-1210 s.c., 10^5 cells, acid diluted with saline, female; type: in vivo, Mouse CD2 F1 (CDF1)
Description: as §14, §11
Inoculum site: Subcutaneous
as §15, §3, §12, §5, §6, §7

M5076 ovarian carcinoma [7] = assay: NCI screen, M5076 ovarian carcinoma, intraperitoneal (summary); type: in vivo, Mouse; settings: for Antitumor activity in words: M5076
Description: as §16, with “methods. In the experiments conducted by the NCI, evaluation of activity is made on the basis of appropriate parameters, such as median survival time (MST) or change in average tumor diameter (CATD)in ocular micrometer units (OMU).” for “methods.”

[8] = X5, listed as benzisoquinolinedione

Compound: CN(C)CCN1C(=O)c2cccc3cc(N)cc(c23)C1=O [Example 9, 1H-Benz[de]isoquinoline-1,3(2H)-dione, 5-amino-2-[2-(dimethylamino)ethyl]]
- Median survival time (MST) (B16 Melanocarcinoma; 1.00 mg/kg i.p.): 18.8 days
- Percent T/C (B16 Melanocarcinoma; 1.00 mg/kg i.p.): 102%
- Median survival time (MST) (B16 Melanocarcinoma; 2.00 mg/kg i.p.): 17.0 days
- Percent T/C (B16 Melanocarcinoma; 2.00 mg/kg i.p.): 102%
- Median survival time (MST) (B16 Melanocarcinoma; 4.00 mg/kg i.p.): 20.0 days
- Percent T/C (B16 Melanocarcinoma; 4.00 mg/kg i.p.): 120%
- Median survival time (MST) (B16 Melanocarcinoma; 8.00 mg/kg i.p.): 19.4 days
- Percent T/C (B16 Melanocarcinoma; 8.00 mg/kg i.p.): 116%
- Median survival time (MST) (B16 Melanocarcinoma; 16.00 mg/kg i.p.): 22.9 days
- Percent T/C (B16 Melanocarcinoma; 16.00 mg/kg i.p.): 137%
- Median survival time (MST) (B16 Melanocarcinoma; 32.00 mg/kg i.p.): 7.0 days
- LD50 ([1]; combined sexes): 28.4 mg/kg
- LD50 ([1]; male): 28.8 mg/kg
- body weight, mice (CD2 F1 mice; X5): Dose-related weight loss was mild to severe initially
- time of mortality, mice (CD2 F1 mice; [8]): between days 1 and 10; also recorded: between days 6 and 10
- toxic signs, mice (CD2 F1 mice; [8]): labored breathing, exophthalmus, hyperextension of limbs, loss of locomotor ability, struggling, rough hair coat, huched posture, dehydration, increased irritability, decreased activity, swollen and necrotic tails, squinted eyes, prostration and moribundity; also recorded: ataxia and swollen faces with closed eyes and ocular discharge; also recorded: tail lesions which persisted to termination on day 33
- LD10 (CD2 F1 mice; combined sexes): 24.9 mg/kg/day
- LD10, second dose column (CD2 F1 mice; combined sexes): 74.7
- LD90 (CD2 F1 mice; combined sexes): 32.5 mg/kg/day
- LD90, second dose column (CD2 F1 mice; combined sexes): 97.5
- Slope (lethality) (CD2 F1 mice; combined sexes): 22.3
- LD10 (CD2 F1 mice; male): 24.3 mg/kg/day
- LD10, second dose column (CD2 F1 mice; male): 72.9
- LD90 (CD2 F1 mice; male): 34.2 mg/kg/day
- LD90, second dose column (CD2 F1 mice; male): 102.6
- Slope (lethality) (CD2 F1 mice; male): 17.2
- Mean survival time (MST) (L-1210 Lymphoid leukemia [2]; 1.00 mg/kg i.p.): 9.0 days
- Percent T/C (L-1210 Lymphoid leukemia [2]; 1.00 mg/kg i.p.): 104%
- Mean survival time (MST) (L-1210 Lymphoid leukemia [2]; 2.00 mg/kg i.p.): 8.7 days
- Percent T/C (L-1210 Lymphoid leukemia [2]; 2.00 mg/kg i.p.): 101%
- Mean survival time (MST) (L-1210 Lymphoid leukemia [2]; 4.00 mg/kg i.p.): 9.3 days
- Percent T/C (L-1210 Lymphoid leukemia [2]; 4.00 mg/kg i.p.): 108%
- Mean survival time (MST) (L-1210 Lymphoid leukemia [2]; 8.00 mg/kg i.p.): 11.7 days
- Percent T/C (L-1210 Lymphoid leukemia [2]; 8.00 mg/kg i.p.): 136%
- Mean survival time (MST) (L-1210 Lymphoid leukemia [2]; 16.00 mg/kg i.p.): 17.0 days
- Percent T/C (L-1210 Lymphoid leukemia [2]; 16.00 mg/kg i.p.): 197%
- Mean survival time (MST) (L-1210 Lymphoid leukemia [2]; 32.00 mg/kg i.p.): 7.7 days
- Percent T/C (L-1210 Lymphoid leukemia [2]; 32.00 mg/kg i.p.): 89%
- Mean survival time (MST) (L-1210 Lymphoid leukemia [3]; 1.00 mg/kg i.p.): 7.5 days
- Percent T/C (L-1210 Lymphoid leukemia [3]; 1.00 mg/kg i.p.): 92%
- Mean survival time (MST) (L-1210 Lymphoid leukemia [3]; 2.00 mg/kg i.p.): 8.3 days
- Percent T/C (L-1210 Lymphoid leukemia [3]; 2.00 mg/kg i.p.): 102%
- Mean survival time (MST) (L-1210 Lymphoid leukemia [3]; 4.00 mg/kg i.p.): 8.7 days
- Percent T/C (L-1210 Lymphoid leukemia [3]; 4.00 mg/kg i.p.): 107%
- Mean survival time (MST) (L-1210 Lymphoid leukemia [3]; 8.00 mg/kg i.p.): 10.2 days
- Percent T/C (L-1210 Lymphoid leukemia [3]; 8.00 mg/kg i.p.): 125%
- Mean survival time (MST) (L-1210 Lymphoid leukemia [3]; 16.00 mg/kg i.p.): 14.2 days
- Percent T/C (L-1210 Lymphoid leukemia [3]; 16.00 mg/kg i.p.): 175%
- Mean survival time (MST) (L-1210 Lymphoid leukemia [3]; 32.00 mg/kg i.p.): 7.8 days
- Percent T/C (L-1210 Lymphoid leukemia [3]; 32.00 mg/kg i.p.): 96%
- Mean survival time (MST) (M5076 ovarian carcinoma [4]; 4.50 mg/kg i.p.): 29,0 days
- Percent T/C (M5076 ovarian carcinoma [4]; 4.50 mg/kg i.p.): 109%
- Mean survival time (MST) (M5076 ovarian carcinoma [4]; 9,00 mg/kg i.p.): 28,7 days
- Percent T/C (M5076 ovarian carcinoma [4]; 9,00 mg/kg i.p.): 107%
- Mean survival time (MST) (M5076 ovarian carcinoma [4]; 18,00 mg/kg i.p.): 30,8 days
- Percent T/C (M5076 ovarian carcinoma [4]; 18,00 mg/kg i.p.): 115%
- Mean survival time (MST) (M5076 ovarian carcinoma [4]; 36,00 mg/kg i.p.): 37,0 days
- Percent T/C (M5076 ovarian carcinoma [4]; 36,00 mg/kg i.p.): 139%
- Mean survival time (MST) (M5076 ovarian carcinoma [4]; 72,00 mg/kg i.p.): Toxic.
- maximum increased life span ([5]; 8 mg/kg i.p.): 76%
- maximum increased life span ([5]; 16 mg/kg i.p.): 77%
- Antitumor activity in words ([5]; listed as BIDA): active
- Antitumor activity in words ([5]; listed as the compound): at least a reproducible minimal activity
- Table II evaluation ([5]; median survival time, 9 tests, full wrapped cell: Reproducible minimal activity): Reproducible minimal
- T/C values in the P388 leukemia pre-screen ([5]; test/control as percentage, listed as the compound): 177% and 176%
- Median survival time (MST) (L-1210 Lymphoid leukemia [6]; 5.00 mg/kg i.p.): 8.2 days
- Percent T/C (L-1210 Lymphoid leukemia [6]; 5.00 mg/kg i.p.): 102%
- Median survival time (MST) (L-1210 Lymphoid leukemia [6]; 7.00 mg/kg i.p.): 8.3 days
- Percent T/C (L-1210 Lymphoid leukemia [6]; 7.00 mg/kg i.p.): 103%
- Median survival time (MST) (L-1210 Lymphoid leukemia [6]; 10.00 mg/kg i.p.): 9.0 days
- Percent T/C (L-1210 Lymphoid leukemia [6]; 10.00 mg/kg i.p.): 112%
- Median survival time (MST) (L-1210 Lymphoid leukemia [6]; 16.00 mg/kg i.p.): 12.0 days
- Percent T/C (L-1210 Lymphoid leukemia [6]; 16.00 mg/kg i.p.): 150%
- Median survival time (MST) (L-1210 Lymphoid leukemia [6]; 24.00 mg/kg i.p.): 9.3 days
- Percent T/C (L-1210 Lymphoid leukemia [6]; 24.00 mg/kg i.p.): 116%
- Antitumor activity in words (M5076 ovarian carcinoma [7]; listed as BIDA): Activity was seen
- Antitumor activity in words (M5076 ovarian carcinoma [7]; listed as the compound): activity substantially greater than the level considered to be of minimal interest; also recorded: exceeded the minimal level of activity for clinical interest
- Table II evaluation (M5076 ovarian carcinoma [7]; mean survival time, 15 tests, full wrapped cell: Activity Substantially greater than the minimal): Activity
